Usually IC50 stands for the concentration that inhibits the measured activity by half.

For this test, the target named is LC3B (Homo sapiens, UniProt Q9GZQ8). As to the kind of experiment: Fluorescence Polarization (FP) Assay: displacement of FITC-labeled peptide from GST-LC3B. It is filed as binding. As to conditions: Fluorescence Polarization assay; GST-LC3B 180 nM, FITC-labeled peptide 18 nM, 25° C.; read-out: IC50. The protocol:
The compounds of the present invention for regulating the autophagy-related protein LC3B were tested by Fluorescence Polarization (FP) Assay.
Fluorescence Polarization (FP) Assay Test
A general note: Polarisation of emitted light reports the rotation of a fluorescent probe.
For the molecule `O=C1CC(COc2ccccc2)CC(=O)C1=CNCCN1CCN(CCO)CC1` (stereo not shown) [Compound 31, 2-(((2-(4-(2-hydroxyethyl)piperazin-1-yl)ethyl)amino)methylene)-5-(phenoxymethyl) cyclohexane-1,3-dione], the IC50 was in the range of 3 to 15 µM.

Regarding `O=C1CC(COc2cccc(F)c2)CC(=O)C1=CNCCN1CCN(CCO)CC1` (stereo not shown) [Compound 32, 5-((3-fluorophenoxy)methyl)-2-(((2-(4-(2-hydroxyethyl)piperazin-1-yl)ethyl)amino)methylene) cyclohexane-1,3-dione], the IC50 lay in the range of 3 to 15 µM.

`O=C1CC(c2ccc(-c3ncnc4[nH]cnc34)cc2)CC(=O)C1=CNCCN1CCN(CCO)CC1` (stereo not shown) [Compound 33, 5-(4-(9H-purin-6-yl)phenyl)-2-(((2-(4-(2-hydroxyethyl)piperazin-1-yl)ethyl)amino)methylene)cyclohexane-1,3-dione]: the half-inhibitory concentration (IC50) fell in the range of 15 to 100 µM.

With `COCCOCCOc1cccc(C2CC(=O)C(=CNCCN3CCN(CCO)CC3)C(=O)C2)c1` (stereo not shown) [Compound 34, 2-(((2-(4-(2-hydroxyethyl)piperazin-yl)ethyl)amino)methylene)-5-(3-(2-(2-methoxyethoxy)ethoxy)phenyl)cyclohexane-1,3-dione], the IC50 was under 3 µM.

Take `O=C1CC(c2ccc(N3CCOCC3)cc2)CC(=O)C1=CNCCN1CCN(CCO)CC1` (stereo not shown) [Compound 35, 2-(((2-(4-(2-hydroxyethyl)piperazin-1-yl)ethyl)amino)methylene)-5-(4-morpholinophenyl) cyclohexane-1,3-dione]: the IC50 is 15 to 100 µM.

Take `CN1CCN(c2ccc(C3CC(=O)C(=CNCCN4CCN(CCO)CC4)C(=O)C3)cc2)CC1` (stereo not shown) [Compound 36, 2-(((2-(4-(2-hydroxyethyl)piperazin-1-yl)ethyl)amino)methylene)-5-(4-(4-methylpiperazin-1-yl)phenyl) cyclohexane-1,3-dione]: the IC50 was 100 to 1000 µM.

Turning to `O=C1CC(c2cccs2)CC(=O)C1=CNCCN1CCN(CCO)CC1` (stereo not shown) [Compound 37, 2-(((2-(4-(2-hydroxyethyl)piperazin-1-yl)ethyl)amino)methylene)-5-(thiophen-2-yl) cyclohexane-1,3-dione], the IC50 is under 3 µM.

Regarding `O=C1CC(c2c[nH]c3ccccc23)CC(=O)C1=CNCCN1CCN(CCO)CC1` (stereo not shown) [Compound 39, 2-(((2-(4-(2-hydroxyethyl)piperazin-1-yl)ethyl)amino)methylene)-5-(1H-indol-3-yl) cyclohexane-1,3-dione], the IC50 is under 3 µM.

Take `O=C1CC(c2ccc(O)cc2)CC(=O)C1=CNCCN1CCN(CCO)CC1` (stereo not shown) [Compound 40, 2-(((2-(4-(2-hydroxyethyl)piperazin-1-yl)ethyl)amino)methylene)-5-(4-hydroxyphenyl) cyclohexane-1,3-dione]: the IC50 is under 3 µM.

For the molecule `COCCOCCOc1ccccc1C1CC(=O)C(=CNCCN2CCN(CCO)CC2)C(=O)C1` (stereo not shown) [Compound 41], the IC50 lay within 3 to 15 µM.

Consider `COCCOc1ccccc1C1CC(=O)C(=CNCCN2CCN(CCO)CC2)C(=O)C1` (stereo not shown) [Compound 42, 2-(((2-(4-(2-hydroxyethyl)piperazin-1-yl)ethyl)amino)methylene)-5-(2-(2-methoxyethoxy)phenyl) cyclohexane-1,3-dione], for which the IC50 lay in the range of 3 to 15 µM.

As to `O=C1CC(c2ccco2)CC(=O)C1=CNCCN1CCN(CCO)CC1` (stereo not shown) [Compound 43, 5-(furan-2-yl)-2-(((2-(4-(2-hydroxyethyl)piperazin-1-yl)ethyl)amino)methylene) cyclohexane-1,3-dione], the IC50 was in the range of 3 to 15 µM.

Take `COCCOc1ccc(C2CC(=O)C(=CNCCN3CCN(CCO)CC3)C(=O)C2)cc1` (stereo not shown) [Compound 44, 2-(((2-(4-(2-hydroxyethyl)piperazin-1-yl)ethyl)amino)methylene)-5-(4-(2-methoxyethoxy)phenyl) cyclohexane-1,3-dione]: the IC50 was 15 to 100 µM.

Consider `COCCOCCOc1ccc(C2CC(=O)C(=CNCCN3CCN(CCO)CC3)C(=O)C2)cc1` (stereo not shown) [Compound 45, 2-(((2-(4-(2-hydroxyethyl)piperazin-1-yl)ethyl)amino)methylene)-5-(4-(2-(2-methoxyethoxy)ethoxy)phenyl) cyclohexane-1,3-dione], for which the IC50 was in the range of 15 to 100 µM.

With `COc1ccc(C2CC(=O)C(=CNCCN3CCN(CCO)CC3)C(=O)C2)c(OC)c1` (stereo not shown) [Compound 46, 5-(2,4-dimethoxyphenyl)-2-(((2-(4-(2-hydroxyethyl)piperazin-1-yl)ethyl)amino)methylene) cyclohexane-1,3-dione], the IC50 was under 3 µM.

Consider `O=C1CC(c2ccc(C(F)(F)F)cc2)CC(=O)C1=CNCCN1CCN(CCO)CC1` (stereo not shown) [Compound 48, 2-(((2-(4-(2-hydroxyethyl)piperazin-1-yl)ethyl)amino)methylene)-5-(4-(trifluoromethyl)phenyl) cyclohexane-1,3-dione], for which the IC50 is under 3 µM.

Take `O=C1CC(c2ccc(F)cc2)CC(=O)C1=CNCCN1CCN(CCO)CC1` (stereo not shown) [Compound 49, 5-(4-fluorophenyl)-2-(((2-(4-(2-hydroxyethyl)piperazin-1-yl)ethyl)amino)methylene) cyclohexane-1,3-dione]: the IC50 was under 3 µM.

In the case of `O=C1CC(c2ccc(OC(F)(F)F)cc2)CC(=O)C1=CNCCN1CCN(CCO)CC1` (stereo not shown) [Compound 50, 2-(((2-(4-(2-hydroxyethyl)piperazin-1-yl)ethyl)amino)methylene)-5-(4-(trifluoromethoxy)phenyl) cyclohexane-1,3-dione], the IC50 was under 3 µM.

As to `N#Cc1ccc(C2CC(=O)C(=CNCCN3CCN(CCO)CC3)C(=O)C2)cc1` (stereo not shown) [Compound 51, 2-(((2-(4-(2-hydroxyethyl)piperazin-1-yl)ethyl)amino)methylene)-5-(4-(cyano)phenyl) cyclohexane-1,3-dione], the IC50 lay within 15 to 100 µM.

As to `O=C1CC(c2ccccn2)CC(=O)C1=CNCCN1CCN(CCO)CC1` (stereo not shown) [Compound 53, 2-(((2-(4-(2-hydroxyethyl)piperazin-1-yl)ethyl)amino)methylene)-5-(pyridin-2-yl) cyclohexane-1,3-dione], the IC50 lay in the range of 15 to 100 µM.

On to `COc1ccc(C2CC(=O)C(=CNCCN3CCN(CCO)CC3)C(=O)C2)c2ccccc12` (stereo not shown) [Compound 54, 2-(((2-(4-(2-hydroxyethyl)piperazin-1-yl)ethyl)amino)methylene)-5-(4-methoxy-naphthalen-1-yl)cyclohexane-1,3-dione], for which the 50% inhibitory concentration (IC50) is under 3 µM.

As to `Cn1cccc1C1CC(=O)C(=CNCCN2CCN(CCO)CC2)C(=O)C1` (stereo not shown) [Compound 55, 2-(((2-(4-(2-hydroxyethyl)piperazin-1-yl)ethyl)amino)methylene)-5-(1-methyl-1H-pyrrol-2-yl)cyclohexane-1,3-dione], the IC50 was 15 to 100 µM.

Take `O=C1CC(c2cccc3c2OCCO3)CC(=O)C1=CNCCN1CCN(CCO)CC1` (stereo not shown) [Compound 56, 5-(2,3-dihydrobenzo [b][1,4]dioxin-5-yl)-2-(((2-(4-(2-hydroxyethyl)piperazin-1-yl)ethyl)amino)methylene) cyclohexane-1,3-dione]: the concentration for half-maximal inhibition (IC50) is 3 to 15 µM.

In the case of `O=C1CC(c2nccs2)CC(=O)C1=CNCCN1CCN(CCO)CC1` (stereo not shown) [Compound 57, 2-(((2-(4-(2-hydroxyethyl)piperazin-1-yl)ethyl)amino)methylene)-5-(thiazol-2-yl) cyclohexane-1,3-dione], the IC50 is 15 to 100 µM.

Take `O=C1CC(c2c[nH]cn2)CC(=O)C1=CNCCN1CCN(CCO)CC1` (stereo not shown) [Compound 59, 2-(((2-(4-(2-hydroxyethyl)piperazin-1-yl)ethyl)amino)methylene)-5-(1H-imidazol-4-yl) cyclohexane-1,3-dione]: the IC50 was 100 to 1000 µM.

As for `O=C1CC(c2c3ccccc3cc3ccccc23)CC(=O)C1=CNCCN1CCN(CCO)CC1` (stereo not shown) [Compound 61, 5-(anthracen-9-yl)-2-(((2-(4-(2-hydroxyethyl)piperazin-1-yl)ethyl)amino)methylene) cyclohexane-1,3-dione], the IC50 is under 3 µM.

Regarding `O=C1CC(c2ccnc3ccccc23)CC(=O)C1=CNCCN1CCN(CCO)CC1` (stereo not shown) [Compound 62, 2-(((2-(4-(2-hydroxyethyl)piperazin-1-yl)ethyl)amino)methylene)-5-(quinolin-4-yl) cyclohexane-1,3-dione], the IC50 was 3 to 15 µM.

In the case of `CCC(CC)C1CC(=O)C(=CNCCN2CCN(CCO)CC2)C(=O)C1` (stereo not shown) [Compound 63, 2-(((2-(4-(2-hydroxyethyl)piperazin-1-yl)ethyl)amino)methylene)-5-(pentan-3-yl) cyclohexane-1,3-dione], the IC50 fell in the range of 15 to 100 µM.

Regarding `O=C1CC(C2CCOCC2)CC(=O)C1=CNCCN1CCN(CCO)CC1` (stereo not shown) [Compound 64, 2-(((2-(4-(2-hydroxyethyl)piperazin-1-yl)ethyl)amino)methylene)-5-(tetrahydro-2H-pyran-4-yl)cyclohexane-1,3-dione], the IC50 was 100 to 1000 µM.

For the molecule `CS(=O)(=O)c1ccc(C2CC(=O)C(=CNCCN3CCN(CCO)CC3)C(=O)C2)cc1` (stereo not shown) [Compound 65, 2-(((2-(4-(2-hydroxyethyl)piperazin-1-yl)ethyl)amino)methylene)-5-(4-(methylsulfonyl)phenyl) cyclohexane-1,3-dione], the IC50 fell in the range of 100 to 1000 µM.

As for `O=C1CC(c2csc3ccccc23)CC(=O)C1=CNCCN1CCN(CCO)CC1` (stereo not shown) [Compound 66, 5-(benzo[b]thiophen-3-yl)-2-(((2-(4-(2-hydroxyethyl)piperazin-1-yl)ethyl)amino)methylene) cyclohexane-1,3-dione], the IC50 is under 3 µM.

With `O=C1CC(C2CC2)CC(=O)C1=CNCCN1CCN(CCO)CC1` (stereo not shown) [Compound 67, 5-cyclopropyl-2-(((2-(4-(2-hydroxyethyl)piperazin-1-yl)ethyl)amino)methylene) cyclohexane-1,3-dione], the IC50 fell in the range of 100 to 1000 µM.

In the case of `O=C1CC(c2cccc3[nH]ccc23)CC(=O)C1=CNCCN1CCN(CCO)CC1` (stereo not shown) [Compound 68, 2-(((2-(4-(2-hydroxyethyl)piperazin-1-yl)ethyl)amino)methylene)-5-(1H-indol-4-yl) cyclohexane-1,3-dione], the IC50 was under 3 µM.

Turning to `CC(c1ccccc1)C1CC(=O)C(=CNCCN2CCN(CCO)CC2)C(=O)C1` (stereo not shown) [Compound 69, 2-(((2-(4-(2-hydroxyethyl)piperazin-1-yl)ethyl)amino)methylene)-5-(1-phenylethyl) cyclohexane-1,3-dione], the IC50 lay within 15 to 100 µM.
